Experimental data: US9428487B2, “Heteroaromatic amides and thioamides as pesticides” (Bayer Intellectual Property GmbH, priority 2008, dated 2016)
Read-outs that look alike come from different tables or passages of the source.

Experiments:
[1] = system: green peach aphid (Myzus persicae); test: Myzus test; type: in vivo; conditions: read-out: efficacy (aphids killed)
Procedure: • Solvent: 78.0 parts by weight of acetone • 1.5 parts by weight of dimethylformamide • Emulsifier: 0.5 part by weight of alkylaryl polyglycol ether
To produce an appropriate active ingredient formulation, 1 part by weight of active ingredient is mixed with the amounts of solvent and emulsifier specified and the concentrate is diluted to the desired concentration with emulsifier-containing water.
Chinese cabbage leaf slices (Brassica pekinensis) infested by all stages of the green peach aphid (Myzus persicae) are sprayed with an active ingredient formulation of the desired concentration.
After the desired time, the efficacy in % is determined 100% means that all aphids have been killed; 0% means that no aphids have been killed.

[2] = Determination of log P values by HPLC on reversed-phase column (formic acid method); type: physicochemical; conditions: reversed-phase C 18, acidic range (pH 3.4), formic acid eluents, 55° C.; for chromatographic logP: read-out: logP (HCOOH)
Procedure: 1) Description of Method for Determining the Log P Values (Formic Acid Method)
The log P values reported in the table were determined according to EEC-Directive 79/831 Annex V.A8 by HPLC (High Performance Liquid Chromatography) on a reversed-phase column (C 18). […]
Eluent A: acetonitrile+1 ml of formic acid/liter. Eluent B: water+0.9 ml of formic acid/liter.
Gradient: from 10% eluent A/90% eluent B to 95% eluent A/5% eluent B in 4.25 min
The calibration was effected with unbranched alkan-2-ones (with 3 to 16 carbon atoms), whose log P values are known (determination of the log P values on the basis of the retention times by linear interpolation between two successive alkanones). The lambda-max values were determined with reference to the UV spectra from 200 nm to 400 nm in the maxima of the chromatographic signals.

[3] = application rate 500 g/ha, spray on Chinese cabbage leaf slices
[4] = reversed-phase HPLC column (C 18), pH 3.4, HPLC

Row | SMILES | pest or weed control at 500 g/ha [1, 3] | chromatographic logP [2, 4] | pest or weed control at 500 g/ha ([1]; in Brassica rapa) | chromatographic logP ([2]; HPLC) | logP (HCOOH) ([2]; HPLC)
1 | Cc1nccc(CNC(=O)c2cnc(-c3cccnc3)s2)n1 [Compound 74] | ≥ 70% | 0.94 |  |  | 
2 | Cc1nc(-c2cccnc2)sc1C(=O)NC1CC(C(F)(F)F)CC(C(F)(F)F)C1 (centres unmarked) [Compound 152] | ≥ 70% | 2.95 |  |  | 
3 | CCCC(NC(=O)c1sc(-c2cccnc2)nc1C)C(F)(F)F (centres unmarked) [Compound 181] | ≥ 70% | 2.58 |  |  | 
4 | Cc1cc(CN(C)C(=O)c2sc(-c3cccnc3)nc2C)no1 [Compound 164] | ≥ 70% | 1.52 |  |  | 
5 | Cc1nc(-c2cncc(I)c2)sc1C(=O)NCC(F)(F)F [Compound 20] |  | 2.75 |  |  | 
6 | CSC[C@H](C)NC(=O)c1cnc(-c2cccnc2)s1 [Compound 191] | ≥ 70% | 1.53 |  |  | 
7 | CC#CCN(CC(F)(F)F)C(=O)c1sc(-c2cccnc2)nc1C [Compound 139] | ≥ 70% | 2.47 |  |  | 
8 | Cc1nc(-c2cccnc2)sc1C(=O)NCc1ccc(Cl)nc1 [Compound 115] | ≥ 70% | 1.71 |  |  | 
9 | Cc1nc(-c2cccnc2)sc1C(=O)NNc1ncccn1 [Compound 128] | ≥ 70% | 0.75 |  |  | 
10 | CNC(=O)c1cnc(-c2cccnc2)s1 [Compound 59] | ≥ 70% | 0.62 |  |  | 
11 | Cc1nc(-c2cccnc2)sc1C(=O)NC(C)(C#N)C1CCCO1 (centres unmarked) [Compound 157] | ≥ 70% | 1.69 |  |  | 
12 | COC(=O)C1(NC(=O)c2sc(-c3cccnc3)nc2C)CC1 [Compound 51] | ≥ 70% | 1.3 |  |  | 
13 | C#CC(C)(C)NC(=O)c1sc(-c2cccnc2)nc1C [Compound 156] | ≥ 70% | 1.66 |  |  | 
14 | Cn1nc(-c2cccnc2)cc1C(=O)NCC(F)F [Compound 25] | ≥ 70% | 0.65 |  |  | 
15 | NC(=O)c1cnc(-c2cccnc2)s1 [Compound 72] | ≥ 70% | 0.29 |  |  | 
16 | Cc1nc(-c2cncnc2)sc1C(=O)NCc1ncccn1 [Compound 22] | ≥ 70% | 1.05 |  |  | 
17 | COCN(C(=O)c1sc(-c2cccnc2)nc1C)C(C)C(=O)OC (centres unmarked) [Compound 109] | ≥ 70% | 1.61 |  |  | 
18 | Cc1nc(-c2cccnc2)sc1C(=O)NCC(C)Cl (centres unmarked) [Compound 125] | ≥ 70% | 1.69 |  |  | 
19 | Cc1nc(-c2cccnc2)sc1C(=O)NC1CCC(C(F)(F)F)CC1 (centres unmarked) [Compound 123] | ≥ 70% | 2.42 |  |  | 

Row | SMILES | pest or weed control at 500 g/ha [1, 3] | chromatographic logP [2, 4] | pest or weed control at 500 g/ha ([1]; in Brassica rapa) | chromatographic logP ([2]; HPLC) | logP (HCOOH) ([2]; HPLC)
20 | Cc1cnc(CNC(=O)c2sc(-c3cccnc3)nc2C)cn1 [Compound 77] | ≥ 70% | 1.15 |  |  | 
21 | Cc1nc(-c2cccnc2)sc1C(=O)NCC#N [Compound 184] | ≥ 70% | 1.05 |  |  | 
22 | COC(CNC(=O)c1sc(-c2cccnc2)nc1C)OC [Compound 101] | ≥ 70% | 1.33 |  |  | 
23 | Cc1nc(-c2cccnc2)sc1C(=O)NCc1ncc(Cl)cn1 [Compound 147] | ≥ 70% | 1.45 |  |  | 
24 | Cc1cc(C)nc(CNC(=O)c2cnc(-c3cccnc3)s2)n1 [Preparation Example 3] |  | 1.19 | ≥ 70% |  | 
25 | Cc1nc(-c2cccnc2)sc1C(=O)NCc1cccnc1 [Compound 135] | ≥ 70% | 0.46 |  |  | 
26 | CCC(=O)N(CC#N)C(=O)c1cnc(-c2cccnc2)s1 [Compound 190] | ≥ 70% | 1.77 |  |  | 
27 | Cc1nc(-c2cccnc2)sc1C(=O)NCc1nccs1 [Compound 130] | ≥ 70% | 1.38 |  |  | 
28 | CCOC(=O)CN(OC)C(=O)c1cnc(-c2cccnc2)s1 [Compound 178] | ≥ 70% | 1.65 |  |  | 
29 | Cc1nc(-c2cccnc2)sc1C(=O)NC1CCS(=O)(=O)C1 (centres unmarked) [Compound 110] | ≥ 70% | 1.22 |  |  | 
30 | Cc1nc(-c2cncnc2)sc1C(=O)N(C)C [Compound 23] |  | 1 |  |  | 
31 | Cc1cc(C)nc(CNC(=O)c2sc(-c3cccnc3)nc2C)n1 [Compound 95] | ≥ 70% | 1.24 |  |  | 
32 | CSCCNC(=O)c1sc(-c2cccnc2)nc1C [Compound 44] | ≥ 70% | 1.54 |  |  | 
33 | COCN(Cc1ncccn1)C(=O)c1sc(-c2cccnc2)nc1C [Compound 99] | ≥ 70% | 1.28 |  |  | 
34 | CCOC(=O)NC(C)(C)CNC(=O)c1sc(-c2cccnc2)nc1C [Compound 120] |  |  | ≥ 70% | 1.75 | 
35 | CN(CC(F)(F)F)C(=O)c1cc(-c2cccnc2)nn1C [Compound 30] | ≥ 70% | 1.09 |  |  | 
36 | O=C(NCc1cccc(Br)n1)c1cnc(-c2cccnc2)s1 [Compound 179] | ≥ 70% | 1.68 |  |  | 
37 | Cc1nc(-c2cccnc2)sc1C(=O)NN1CCOCC1 [Compound 203] | ≥ 70% | 1.23 |  |  | 
38 | CSC[C@H](C)NC(=O)c1sc(-c2cccnc2)nc1C [Compound 68] |  |  |  |  | 1.65

Row | SMILES | pest or weed control at 500 g/ha [1, 3] | chromatographic logP [2, 4] | pest or weed control at 500 g/ha ([1]; in Brassica rapa) | chromatographic logP ([2]; HPLC) | logP (HCOOH) ([2]; HPLC)
39 | CN(CC1CCCO1)C(=O)c1cnc(-c2cccnc2)s1 (centres unmarked) [Compound 180] | ≥ 70% | 1.33 |  |  | 
40 | Cc1cc(CN(C)C(=O)c2cnc(-c3cccnc3)s2)nn1C [Compound 161] | ≥ 70% | 1.26 |  |  | 
41 | Cc1nc(-c2cncnc2)sc1C(=O)N(C)CC(F)(F)F [Compound 21] | ≥ 70% | 1.72 |  |  | 
42 | Cc1nc(-c2cccnc2)sc1C(=O)NCC1OCCCO1 [Compound 92] | ≥ 70% | 1.27 |  |  | 
43 | C=CN(Cc1ncccn1)C(=O)c1cc(-c2cncc(F)c2)nn1C [Compound 13] | ≥ 70% | 1.75 |  |  | 
44 | Cc1nc(-c2cccnc2)sc1C(=O)N(Cc1ccco1)CC(F)(F)F [Compound 131] | ≥ 70% | 2.56 |  |  | 
45 | CON(C)C(=O)c1sc(-c2cccnc2)nc1C [Compound 143] | ≥ 70% | 1.42 |  |  | 
46 | Cc1nc(-c2cncc(Cl)c2)sc1C(=O)N(C)CC(F)(F)F [Preparation Example 2] |  | 2.72 |  |  | 
47 | CCOC(=O)c1nnc(-c2cccnc2)s1 [ethyl 5-pyridin-3-yl[1,3,4]thiadiazole-2-carboxylate] |  | 1.41 |  |  | 
48 | O=C(O)c1cnc(-c2cccnc2)s1 [2-pyridin-3-ylthiazole-5-carboxylic acid] |  | 0.42 |  |  | 
49 | CON(C)C(=O)c1cc(-c2cccnc2)nn1C [Preparation Example 6] |  | 0.49 |  |  | 
50 | Cc1nc(-c2cccnc2)sc1C(=O)NC(C#N)C(C)C (centres unmarked) [Compound 64] |  |  |  |  | 1.57
51 | CCOC(=O)c1cnc(-c2cccnc2)s1 [ethyl 2-pyridin-3-ylthiazole-5-carboxylate] |  | 1.93 |  |  | 
52 | Cc1nc(-c2cncc(I)c2)sc1C(=O)NCc1ncccn1 [Compound 18] |  | 1.87 |  |  | 
53 | Cc1nc(Cl)sc1C(=O)NCC(F)(F)F |  | 1.97 |  |  | 
54 | Cc1nc(-c2cncc(Cl)c2)sc1C(=O)N(C)C [Compound 17] |  | 1.8 |  |  | 
55 | Cc1nc(-c2cncc(F)c2)sc1C(=O)N(C)C [Compound 19] |  | 1.49 |  |  | 
56 | Cc1nc(-c2cccnc2)sc1C(=O)NCC(C)F (centres unmarked) [Compound 76] |  |  |  |  | 1.13
